Marks after values point to notes of the source that are not given here.

The data set in a line: physchem. The format is physicochemical. As to the method: Measurement of Log P values as provided herein was performed according to EEC directive 79/831 Annex V.A8 by HPLC (High Performance Liquid Chromatography) on reversed phase columns with the following methods: […] If more than one Log P value is available within the same method, all the values are given and separated by “+”. Calibration was done with straight-chain alkan2-ones (with 3 to 16 carbon atoms) with known Log P values (measurement of Log P values using retention times with linear interpolation between successive alkanones). Lambda-max-values were determined using UV-spectra from 200 nm to 400 nm and the peak values of the chromatographic signals
As to `O=C(NCC(F)c1ccc(C2CC2)cc1Cl)c1cc(Cl)ncc1Oc1cccc(C(F)(F)F)c1` (racemic) [Compound I-085], the LogP is 5.08^[a]. Same read-out and setting: in the case of `CC(NC(=O)c1cc(Cl)ncc1Oc1cccc(C(F)(F)F)c1)c1ccc(Cl)s1` (centres unmarked) [Compound I-103] it was 4.47^[a].

For `COc1ccc(CCNC(=O)c2cc(Cl)ncc2Oc2cccc(C(F)(F)F)c2)c(OC)c1` [Compound I-008], the LogP was 4.06^[a].

Consider `COc1c(Cl)ncc(Oc2cccc(C(F)(F)F)c2)c1C(=O)NCC(F)(F)c1ccc(C)cc1C` [Compound I-199], for which the LogP is 4.74^[a]. Regarding `Cc1ccc(C(F)(F)CNC(=O)c2cc(C)ncc2Oc2cccc(Cl)c2)c(Cl)c1` [Compound I-067], the LogP is 4.06^[a].

Regarding `COc1cccc(Oc2cnc(Cl)cc2C(=O)NCC(F)(F)c2ccc(C)cc2C)c1` [Compound I-042], the LogP was 4.46^[a]. Same read-out and setting: in the case of `Cc1ccc(CCNC(=O)c2cc(C#N)ncc2Oc2cccc(C(F)(F)F)c2)c(C)c1` [Compound I-059] it was 4.39^[a].

For `O=C(c1cc(Cl)ncc1Oc1cccc(C(F)(F)F)c1)N(O)CCc1ccc(Cl)cc1` [Compound I-164], the LogP is 4.01^[a]. For the molecule `Cc1ccc(C(F)(F)CNC(=O)c2c(Br)cnc(Cl)c2Cl)c(C)c1` [Compound 3-006], the LogP is 3.98^[a]. For `COc1cccc(Oc2cnc(Cl)cc2C(=O)O)c1` [Compound 1-007], the LogP is 2.34^[a]. As to `Cc1cccc(Oc2cnc(C)cc2C(=O)NCC(F)(F)c2ccc(C)cc2C)c1` [Compound I-047], the LogP is 4.08^[a].

Regarding `O=C(NCC(F)c1ccc(Cl)cc1Cl)c1cc(C2CC2)ncc1Oc1cccc(C2CC2)c1F` (racemic) [Compound I-074], the LogP is 5.32^[a]. By chromatographic logP is commonly meant lipophilicity estimated from chromatographic retention. A higher chromatographic logP goes with a more lipophilic compound. Turning to `C=C(OCC)c1cc(C(=O)OC)c(Oc2cccc(C(F)(F)F)c2)cn1` [Compound 1-013, methyl 2-(1-ethoxyvinyl)-5-[3-(trifluoromethyl)phenoxy]pyridine-4-carboxylate], the chromatographic logP is 4.7. Regarding `Cc1cc(C(=O)NCC(F)(F)c2ccc(Br)cc2Cl)c(Oc2cccc(C(F)F)c2)cn1` [Compound I-236], the LogP was 3.74^[a]. The same measure, in the same setting: in the case of `COc1ccc(CCN(C(C)=O)C(=O)c2cc(Cl)ncc2Oc2cccc(C(F)(F)F)c2)cc1` [Compound I-171] it was 4.55^[a]. Take `Cc1ccc(CCNC(=O)c2cc(Cl)ncc2Oc2cccc([N+](=O)[O-])c2)c(C)c1` [Compound I-130]: the LogP was 4.08^[a]. `Cc1ccc(CCNC(=O)c2cc(Cl)ncc2Oc2cccc(C3COC3)c2)c(C)c1` [Compound I-139]: the LogP was 3.88^[a]. Turning to `Cc1ccc(CCNC(=O)c2cc(Cl)ncc2Oc2cccc(C3CC3)c2)c(C)c1` [Compound I-214], the LogP is 5.14^[a].

On to `Cc1ccc(CCNC(=O)c2cc(Cl)ncc2Oc2ccc(C)c(Cl)c2)c(C)c1` [Compound I-268], for which the LogP is 5.23^[a].

As to `O=C(NCC(F)c1ccc(Cl)cc1Cl)c1cc(C2CC2)ncc1Oc1cccc(C(F)(F)F)c1` (centres unmarked) [Compound I-024], the LogP is 4.96^[a].

For `Cc1cc(C(=O)NC(C)c2cn(C)c3ccccc23)c(Oc2cccc(C(F)(F)F)c2)cn1` (centres unmarked) [Compound I-020], the LogP was 3.64^[a].

As for `Cc1ccc(C(F)(F)CNC(=O)c2ccncc2Oc2cccc(C(F)(F)F)c2)c(C)c1` [Compound I-015], the LogP was 3.84^[a]. Still for that read-out and setting: in the case of `O=C(NCC(F)c1ccc(Cl)c(Cl)c1)c1cc(Cl)ncc1Oc1cccc(C(F)(F)F)c1` (racemic) [Compound I-082] it was 4.81^[a]. For `Cc1cc(C(F)F)ccc1C(F)CNC(=O)c1cc(Cl)ncc1Oc1cccc(C(F)(F)F)c1` (racemic) [Compound I-080], the LogP was 4.40^[a].

On to `O=C(NCC(F)(F)c1ccc(C2CC2)cc1Cl)c1cc(C2CC2)ncc1Oc1cccc(C2CC2)c1F` [Compound I-216], for which the LogP is 5.54^[a]. Take `Cc1ccc(CCNC(=O)c2cc(Cl)ncc2Oc2c(F)ccc(C)c2F)c(C)c1` [Compound I-264]: the LogP was 4.76^[a]. Still for that read-out and setting: in the case of `CCOC(=O)c1ccc(C(F)(F)CNC(=O)c2cc(Cl)ncc2Oc2cccc(C(F)F)c2)c(Cl)c1` [Compound I-120] it was 4.47^[a].

On to `O=C(NCCc1ncc(Cl)cn1)c1cc(Cl)ncc1Oc1cccc(C(F)(F)F)c1` [Compound I-099], for which the LogP was 3.34^[a]. On the same count and under the same terms, in the case of `Cc1cccc(Oc2cnc(C)cc2C(=O)NCCc2ccc(C)cc2C)c1` [Compound I-255] it was 3.86^[a]; in that of `Cc1ccc(C(F)(F)CNC(=O)c2c(Oc3cccc(C(F)(F)F)c3)cnc(Cl)c2F)c(C)c1` [Compound I-181], 4.85^[a]. Regarding `O=C(O)c1cc(Cl)ncc1Oc1cccc(C(F)F)c1` [Compound 1-006], the LogP is 2.48^[a]. On to `O=C(NCCc1ccc2c(c1)OCO2)c1cc(Cl)ncc1Oc1cccc(C(F)(F)F)c1` [Compound I-108], for which the LogP was 3.87^[a]. For the molecule `Cc1ccc(CCNC(=O)c2cc(Cl)ncc2Oc2cnc3ccccc3c2)c(C)c1` [Compound I-223], the LogP is 3.34^[a]. With `COc1cc(C(=O)NCC(F)(F)c2ccc(C)cc2C)c(Oc2cccc(C(F)(F)F)c2)cn1` [Compound I-004], the LogP is 4.77^[a].

Regarding `O=C(NCC(F)c1ccc(Cl)cc1Cl)c1cc(Cl)ncc1Oc1cccc(C2CC2)c1F` (racemic) [Compound I-060], the LogP was 5.17^[a]. Same read-out and setting: the value for `COCCOc1cccc(Oc2cnc(Cl)cc2C(=O)NCCc2ccc(C)cc2C)c1` [Compound I-235] was 4.27^[a]; that for `COc1cccc(Oc2cnc(C)cc2C(=O)NCC(F)(F)c2ccc(C)cc2C)c1` [Compound I-182] was 3.71^[a]; that for `Cc1ccc(CCNC(=O)c2cc(Cl)ncc2Oc2cccc(Br)c2)c(C)c1` [Compound I-137] was 4.86^[a]. The same measure, in the same setting: in the case of `CCOc1cccc(Oc2cnc(Cl)cc2C(=O)NCCc2ccc(C)cc2C)c1` [Compound I-259] it was 4.85^[a]. Regarding `Cc1ccc(C(F)(F)CNC(=O)c2cc(C)ncc2Oc2cccc(C3CC3)c2F)c(Cl)c1` [Compound I-089], the LogP is 4.47^[a]. The same measure, in the same setting: the value for `Cc1ccc(CCNC(=O)c2cc(Cl)ncc2Oc2cccc(I)c2)c(C)c1` [Compound I-141] was 5.01^[a]; that for `O=C(NCC(F)(F)c1ccc(C2CC2)cc1Cl)c1cc(Cl)ncc1Oc1cccc(C2CC2)c1F` [Compound I-075] was 5.31^[a].

Take `Cc1ccc(C(F)(F)CNC(=O)c2c(Br)cnc(Cl)c2F)c(C)c1` [Compound 3-005, 5-bromo-2-chloro-N-[2-(2,4-dimethylphenyl)-2,2-difluoro-ethyl]-3-fluoro-pyridine-4-carboxamide]: the chromatographic logP was 3.81. As to `COC(=O)c1cc(C#C[Si](C)(C)C)ncc1Oc1cccc(C(F)(F)F)c1` [Compound 1-004], the LogP was 5.35^[a]. For the molecule `Cc1ccc(CCNC(=O)c2ccncc2Oc2cccc(C(F)(F)F)c2)c(C)c1` [Compound I-184], the LogP was 3.11^[a].

Take `Cc1cc(C(=O)NCC(F)c2ccc(Cl)cc2Cl)c(Oc2cccc(C(F)(F)F)c2)cn1` (centres unmarked) [Compound I-202]: the LogP was 4.18^[a].

`Cc1ccc(CCNC(=O)c2cc(Cl)ncc2Oc2cccc(C=O)c2F)c(C)c1` [Compound I-127]: the LogP is 3.85^[a].

These data come from patent publication US12552748B2, “Pyridine (thio)amides as fungicidal compounds” (Bayer Aktiengesellschaft, priority 2020, dated 2026).
